Data taken from ChEMBL document CHEMBL1201861, “Genomics of Drug Sensitity in Cancer screening data, Wellcome Trust Sanger Institute”.

How the values were obtained:
Assay in all cases: cells
COLO-829 = type: functional, cell-based, Homo sapiens; conditions: Homo sapiens, COLO-829
Description: SANGER: Inhibition of human COLO-829 cell growth in a cell viability assay.

DB = type: functional, cell-based, Homo sapiens; conditions: Homo sapiens, DB
Description: SANGER: Inhibition of human DB cell growth in a cell viability assay.

DEL = type: functional, cell-based, Homo sapiens; conditions: Homo sapiens, DEL;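 note: growth inhibition of the human DEL cell line, read out with a cell viability assay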
Description: SANGER: Inhibition of human DEL cell growth in a cell viability assay.

DMS-114 = type: functional, cell-based, Homo sapiens; conditions: Homo sapiens, DMS-114
DOHH-2 = type: functional, cell-based, Homo sapiens; conditions: Homo sapiens, DOHH-2;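 note: growth inhibition of human DOHH-2 cells, read out with a cell viability assay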
Description: SANGER: Inhibition of human DOHH-2 cell growth in a cell viability assay.

ES3 = type: functional, cell-based, Homo sapiens; conditions: Homo sapiens, ES3;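 note: growth inhibition of ES3 cells, read out with a cell viability assay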
Description: SANGER: Inhibition of human ES3 cell growth in a cell viability assay.

ES4 = type: functional, cell-based, Homo sapiens; conditions: Homo sapiens, ES4;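 note: growth inhibition of human ES4 cells, read out by a cell viability assay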
Description: SANGER: Inhibition of human ES4 cell growth in a cell viability assay.

ES7 = type: functional, cell-based, Homo sapiens; conditions: Homo sapiens, ES7;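 note: growth inhibition of cultured human ES7 cells, read out as cell viability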
Description: SANGER: Inhibition of human ES7 cell growth in a cell viability assay.

EW-16 = type: functional, cell-based, Homo sapiens; conditions: Homo sapiens, EW-16;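 note: growth inhibition of human EW-16 cells, read out as cell viability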
Description: SANGER: Inhibition of human EW-16 cell growth in a cell viability assay.

HCC2218 = type: functional, cell-based, Homo sapiens; conditions: Homo sapiens, HCC2218;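 note: cell viability assay read-out, with IC50 given as the concentration that inhibits growth of the cell line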
Description: SANGER: Inhibition of human HCC2218 cell growth in a cell viability assay.

HEL = type: functional, cell-based, Homo sapiens; conditions: Homo sapiens, HEL;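 note: growth inhibition of HEL cells, read out with a cell viability assay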
Description: SANGER: Inhibition of human HEL cell growth in a cell viability assay.

HH = type: functional, cell-based, Homo sapiens; conditions: Homo sapiens, HH
Description: SANGER: Inhibition of human HH cell growth in a cell viability assay.

IST-MES1 = type: functional, cell-based, Homo sapiens; conditions: Homo sapiens, IST-MES1;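 note: growth inhibition of IST-MES1 cells, measured with a cell viability assay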
Description: SANGER: Inhibition of human IST-MES1 cell growth in a cell viability assay.

JAR = type: functional, cell-based, Homo sapiens; conditions: Homo sapiens, JAR;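 note: growth inhibition of human JAR cells determined with a cell viability assay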
Description: SANGER: Inhibition of human JAR cell growth in a cell viability assay.

K562 = type: functional, cell-based, Homo sapiens; conditions: Homo sapiens, K562
Description: SANGER: Inhibition of human K-562 cell growth in a cell viability assay.

K5 = type: functional, cell-based, Homo sapiens; conditions: Homo sapiens, K5
Description: SANGER: Inhibition of human K5 cell growth in a cell viability assay.

KE-37 = type: functional, cell-based, Homo sapiens; conditions: Homo sapiens, KE-37;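 note: growth inhibition of KE-37 cells, read out with a cell viability assay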
Description: SANGER: Inhibition of human KE-37 cell growth in a cell viability assay.

KG-1 = type: functional, cell-based, Homo sapiens; conditions: Homo sapiens, KG-1;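 note: growth inhibition of KG-1 cells, read out by a cell viability assay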
Description: SANGER: Inhibition of human KG-1 cell growth in a cell viability assay.

KGN = type: functional, cell-based, Homo sapiens; conditions: Homo sapiens, KGN;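 note: growth inhibition of KGN cells, read out with a cell viability assay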
Description: SANGER: Inhibition of human KGN cell growth in a cell viability assay.

KM12 = type: functional, cell-based, Homo sapiens; conditions: Homo sapiens, KM12;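 note: KM12 cell growth inhibition, read out with a cell viability assay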
Description: SANGER: Inhibition of human KM12 cell growth in a cell viability assay.

KY821 = type: functional, cell-based, Homo sapiens; conditions: Homo sapiens, KY821;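 note: growth inhibition of human KY821 cells, read out by a cell viability assay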
Description: SANGER: Inhibition of human KY821 cell growth in a cell viability assay.

KYSE-270 = type: functional, cell-based; conditions: Homo sapiens;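 note: cell growth inhibition measured with a viability assay in the human KYSE-270 line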
Description: SANGER: Inhibition of human KYSE-270 cell growth in a cell viability assay.

LAMA-84 = type: functional, cell-based, Homo sapiens; conditions: Homo sapiens, LAMA-84;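 note: growth inhibition of LAMA-84 cells, read out with a cell viability assay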
Description: SANGER: Inhibition of human LAMA-84 cell growth in a cell viability assay.

LAN-6 = type: functional, cell-based, Homo sapiens; conditions: Homo sapiens, LAN-6;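 note: growth inhibition of LAN-6 cells, determined with a cell viability assay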
Description: SANGER: Inhibition of human LAN-6 cell growth in a cell viability assay.

LB831-BLC = type: functional, cell-based, Homo sapiens; conditions: Homo sapiens, LB831-BLC;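 note: growth inhibition of LB831-BLC cells, read out with a cell viability assay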
Description: SANGER: Inhibition of human LB831-BLC cell growth in a cell viability assay.

LC-2-ad = type: functional, cell-based, Homo sapiens; conditions: Homo sapiens, LC-2-ad;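 note: growth inhibition of human LC-2-ad cells, read out with a cell viability assay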
Description: SANGER: Inhibition of human LC-2-ad cell growth in a cell viability assay.

LOX IMVI = type: functional, cell-based, Homo sapiens; conditions: Homo sapiens, LOX IMVI
Description: SANGER: Inhibition of human LOXIMVI cell growth in a cell viability assay.

LU-134-A = type: functional, cell-based, Homo sapiens; conditions: Homo sapiens, LU-134-A
Description: SANGER: Inhibition of human LU-134-A cell growth in a cell viability assay.

LU-139 = type: functional, cell-based, Homo sapiens; conditions: Homo sapiens, LU-139
Description: SANGER: Inhibition of human LU-139 cell growth in a cell viability assay.

MEG-01 = type: functional, cell-based, Homo sapiens; conditions: Homo sapiens, MEG-01;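 note: growth inhibition of MEG-01 cells, read out by a cell viability assay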
Description: SANGER: Inhibition of human MEG-01 cell growth in a cell viability assay.

MSTO-211H = type: functional, cell-based, Homo sapiens; conditions: Homo sapiens, MSTO-211H
Description: SANGER: Inhibition of human MSTO-211H cell growth in a cell viability assay.

MZ2-MEL = type: functional, cell-based, Homo sapiens; conditions: Homo sapiens, MZ2-MEL;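 note: growth inhibition of MZ2-MEL cells read out with a cell viability assay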
Description: SANGER: Inhibition of human MZ2-MEL cell growth in a cell viability assay.

Mo = type: functional, cell-based, Homo sapiens; conditions: Homo sapiens, Mo
Description: SANGER: Inhibition of human Mo-T cell growth in a cell viability assay.

NB69 = type: functional, cell-based, Homo sapiens; conditions: Homo sapiens, NB69;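 note: growth inhibition of NB69 cells, determined by a cell viability assay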
Description: SANGER: Inhibition of human NB69 cell growth in a cell viability assay.

NOS-1 = type: functional, cell-based, Homo sapiens; conditions: Homo sapiens, NOS-1;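 note: growth inhibition of the human NOS-1 cell line, read out with a cell viability assay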
Description: SANGER: Inhibition of human NOS-1 cell growth in a cell viability assay.

NTERA-2-cl-D1 = type: functional, cell-based, Homo sapiens; conditions: Homo sapiens, NTERA-2-cl-D1;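 note: inhibition of cell growth, measured with a cell viability assay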
Description: SANGER: Inhibition of human NTERA-S-cl-D1 cell growth in a cell viability assay.

P30-OHK = type: functional, cell-based, Homo sapiens; conditions: Homo sapiens, P30-OHK;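 note: growth inhibition of the P30-OHK cell line, read out with a cell viability assay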
Description: SANGER: Inhibition of human P30-OHK cell growth in a cell viability assay.

RCC10RGB = type: functional, cell-based, Homo sapiens; conditions: Homo sapiens, RCC10RGB;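 note: growth inhibition of human RCC10RGB cells, read out by a cell viability assay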
Description: SANGER: Inhibition of human RCC10RGB cell growth in a cell viability assay.

RS4-11 = type: functional, cell-based, Homo sapiens; conditions: Homo sapiens, RS4-11;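 note: growth inhibition of RS4-11 cells, read out by a cell viability assay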
Description: SANGER: Inhibition of human RS4-11 cell growth in a cell viability assay.

SHP77 = type: functional, cell-based, Homo sapiens, SHP-77; conditions: Homo sapiens, SHP77;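 note: growth inhibition of human SHP-77 cells measured by a cell viability assay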
Description: SANGER: Inhibition of human SHP-77 cell growth in a cell viability assay.

SK-MEL-2 = type: functional, cell-based, Homo sapiens; conditions: Homo sapiens, SK-MEL-2;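 note: growth inhibition of human SK-MEL-2 cells measured with a cell viability assay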
Description: SANGER: Inhibition of human SK-MEL-2 cell growth in a cell viability assay.

BB49-HNC = type: functional, cell-based, Homo sapiens; conditions: Homo sapiens, BB49-HNC;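 note: cell viability assay read-out, reported as inhibition of BB49-HNC cell growth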
Description: SANGER: Inhibition of human BB49-HNC cell growth in a cell viability assay.

BB65-RCC = type: functional, cell-based, Homo sapiens; conditions: Homo sapiens, BB65-RCC;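 note: growth inhibition of the cell line, measured with a cell viability assay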
Description: SANGER: Inhibition of human BB65-RCC cell growth in a cell viability assay.

C8166 = type: functional, cell-based, Homo sapiens; conditions: Homo sapiens, C8166;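 note: growth inhibition of human C8166 cells measured by a cell viability assay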
Description: SANGER: Inhibition of human C8166 cell growth in a cell viability assay.

TE-10 = type: functional, cell-based, Homo sapiens; conditions: Homo sapiens, TE-10;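 note: growth inhibition of TE-10 cells, measured by a cell viability assay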
Description: SANGER: Inhibition of human TE-10 cell growth in a cell viability assay.

TE-8 = type: functional, cell-based, Homo sapiens; conditions: Homo sapiens, TE-8;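 note: growth inhibition of TE-8 cells, measured with a cell viability readout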
Description: SANGER: Inhibition of human TE-8 cell growth in a cell viability assay.

TGBC24TKB = type: functional, cell-based; conditions: Homo sapiens;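 note: growth inhibition of human TGBC24TKB cells, read out with a cell viability assay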
Description: SANGER: Inhibition of human TGBC24TKB cell growth in a cell viability assay.

VA-ES-BJ = type: functional, cell-based, Homo sapiens; conditions: Homo sapiens, VA-ES-BJ;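 note: growth inhibition of the VA-ES-BJ cell line, read out by a cell viability assay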
Description: SANGER: Inhibition of human VA-ES-BJ cell growth in a cell viability assay.

CGTH-W-1 = type: functional, cell-based, Homo sapiens; conditions: Homo sapiens, CGTH-W-1;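 note: growth inhibition of human CGTH-W-1 cells measured by cell viability assay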
Description: SANGER: Inhibition of human CGTH-W-1 cell growth in a cell viability assay.

CN(NC(=O)CC(=O)NN(C)C(=S)c1ccccc1)C(=S)c1ccccc1 [ELESCLOMOL]
IC50 (COLO-829): 0.0431 µM
IC50 (DB): 0.141 µM
IC50 (DEL): 0.0192 µM
IC50 (DMS-114): 0.00943 µM
IC50 (DOHH-2): > 0.2 µM
IC50 (ES3): 0.00579 µM
IC50 (ES4): 0.00439 µM
IC50 (ES7): 0.00359 µM
IC50 (EW-16): 0.00161 µM
IC50 (HCC2218): > 0.2 µM
IC50 (HEL): 0.00708 µM
IC50 (HH): > 0.2 µM
IC50 (IST-MES1): 0.0541 µM
IC50 (JAR): 0.00597 µM
IC50 (K562): > 0.2 µM
IC50 (K5): 0.007 µM
IC50 (KE-37): > 0.2 µM
IC50 (KG-1): 0.0397 µM
IC50 (KGN): > 0.2 µM
IC50 (KM12): > 0.2 µM
IC50 (KY821): > 0.2 µM
IC50 (KYSE-270): 0.0371 µM
IC50 (LAMA-84): 0.0527 µM
IC50 (LAN-6): 0.0546 µM
IC50 (LB831-BLC): 0.0277 µM
IC50 (LC-2-ad): 0.0278 µM
IC50 (LOX IMVI): 0.171 µM
IC50 (LU-134-A): > 0.2 µM
IC50 (LU-139): 0.121 µM
IC50 (MEG-01): 0.105 µM
IC50 (MSTO-211H): > 0.2 µM
IC50 (MZ2-MEL): > 0.2 µM
IC50 (Mo): > 0.2 µM
IC50 (NB69): 0.00122 µM
IC50 (NOS-1): < 0.000781 µM
IC50 (NTERA-2-cl-D1): 0.0194 µM
IC50 (P30-OHK): > 0.2 µM
IC50 (RCC10RGB): > 0.2 µM
IC50 (RS4-11): > 0.2 µM
IC50 (SHP77): > 0.2 µM
IC50 (SK-MEL-2): 0.0732 µM
IC50 (BB49-HNC): 0.126 µM
IC50 (BB65-RCC): 0.0242 µM
IC50 (C8166): > 0.2 µM
IC50 (TE-10): > 0.2 µM
IC50 (TE-8): 0.00541 µM
IC50 (TGBC24TKB): 0.0129 µM
IC50 (VA-ES-BJ): 0.00764 µM
IC50 (CGTH-W-1): 0.011 µM

Cc1ccc(-n2nc(C(C)(C)C)cc2NC(=O)Nc2ccc(OCCN3CCOCC3)c3ccccc23)cc1 [DORAMAPIMOD]
IC50 (COLO-829): > 10 µM
IC50 (DB): > 10 µM
IC50 (DEL): > 10 µM
IC50 (DMS-114): > 10 µM
IC50 (DOHH-2): > 10 µM
IC50 (ES3): > 10 µM
IC50 (ES4): > 10 µM
IC50 (ES7): > 10 µM
IC50 (EW-16): > 10 µM
IC50 (HCC2218): > 10 µM
IC50 (HEL): > 10 µM
IC50 (HH): > 10 µM
IC50 (IST-MES1): 7.96 µM
IC50 (JAR): > 10 µM
IC50 (K562): > 10 µM
IC50 (K5): > 10 µM
IC50 (KE-37): > 10 µM
IC50 (KG-1): > 10 µM
IC50 (KGN): > 10 µM
IC50 (KM12): > 10 µM
IC50 (KY821): > 10 µM
IC50 (KYSE-270): > 10 µM
IC50 (LAMA-84): > 10 µM
IC50 (LAN-6): > 10 µM
IC50 (LB831-BLC): > 10 µM
IC50 (LC-2-ad): > 10 µM
IC50 (LOX IMVI): > 10 µM
IC50 (LU-134-A): > 10 µM
IC50 (LU-139): > 10 µM
IC50 (MEG-01): > 10 µM
IC50 (MSTO-211H): > 10 µM
IC50 (MZ2-MEL): > 10 µM
IC50 (Mo): > 10 µM
IC50 (NB69): > 10 µM
IC50 (NOS-1): > 10 µM
IC50 (NTERA-2-cl-D1): > 10 µM
IC50 (P30-OHK): > 10 µM
IC50 (RCC10RGB): > 10 µM
IC50 (RS4-11): > 10 µM
IC50 (SHP77): > 10 µM
IC50 (SK-MEL-2): > 10 µM
IC50 (BB49-HNC): > 10 µM
IC50 (BB65-RCC): > 10 µM
IC50 (C8166): > 10 µM
IC50 (TE-10): > 10 µM
IC50 (TE-8): > 10 µM
IC50 (TGBC24TKB): > 10 µM
IC50 (VA-ES-BJ): > 10 µM
IC50 (CGTH-W-1): > 10 µM

O=C(NCCCNc1nc(Nc2cccc(NC(=O)N3CCCC3)c2)ncc1I)c1cccs1 [BX-795]
IC50 (COLO-829): > 5 µM
IC50 (DB): 2.13 µM
IC50 (DEL): 2.76 µM
IC50 (DMS-114): > 5 µM
IC50 (DOHH-2): 1.46 µM
IC50 (ES3): 2.62 µM
IC50 (ES4): > 5 µM
IC50 (ES7): 0.836 µM
IC50 (EW-16): 4.31 µM
IC50 (HEL): > 5 µM
IC50 (HH): 4.65 µM
IC50 (IST-MES1): > 5 µM
IC50 (JAR): 3.44 µM
IC50 (K562): > 5 µM
IC50 (K5): > 5 µM
IC50 (KE-37): 3.1 µM
IC50 (KG-1): 2.28 µM
IC50 (KGN): 2.23 µM
IC50 (KM12): 3.3 µM
IC50 (KYSE-270): > 5 µM
IC50 (LAMA-84): 1.77 µM
IC50 (LAN-6): > 5 µM
IC50 (LB831-BLC): > 5 µM
IC50 (LC-2-ad): 1.47 µM
IC50 (LOX IMVI): 1.51 µM
IC50 (LU-134-A): 3.43 µM
IC50 (MEG-01): > 5 µM
IC50 (MSTO-211H): > 5 µM
IC50 (MZ2-MEL): > 5 µM
IC50 (Mo): > 5 µM
IC50 (NB69): 1.16 µM
IC50 (NOS-1): > 5 µM
IC50 (NTERA-2-cl-D1): 1.08 µM
IC50 (P30-OHK): 0.496 µM
IC50 (RCC10RGB): > 5 µM
IC50 (RS4-11): 0.726 µM
IC50 (SHP77): > 5 µM
IC50 (SK-MEL-2): 4.02 µM
IC50 (BB49-HNC): > 5 µM
IC50 (BB65-RCC): > 5 µM
IC50 (C8166): > 5 µM
IC50 (TE-10): > 5 µM
IC50 (TE-8): 3.55 µM
IC50 (TGBC24TKB): > 5 µM
IC50 (VA-ES-BJ): 0.985 µM
IC50 (CGTH-W-1): 0.971 µM
